The source of these data is patent US20100048606A1, “10-Substituted Cytisine Derivatives and Methods of Use Thereof” (Georgetown University Office of Technology Commercialization, priority 2006, published 2010).

Where two headings read alike, the source gives them in different places.

In one assay the target is T1, α2β4 nAChR (Rattus norvegicus, UniProt P12389+P12392).
T1 construct: expressed in transfected cells
Nature of the assay: Competition binding with [3H]epibatidine, membrane homogenates of stably transfected cells. Particulars: for potency estimated from few doses: read-out: Estimated Ki α2β4.

The next assay concerns the target T2, α4β4 nAChR (Rattus norvegicus, UniProt P09483+P12392).
T2 construct: expressed in transfected cells
The assay is described as above. Particulars: for potency estimated from few doses: read-out: Estimated Ki α4β4.

A further assay addresses T3, α4β2 nAChR (Rattus norvegicus, UniProt P09483+P12390).
T3 construct: expressed in transfected cells
The description is as above. Particulars: for potency estimated from few doses: read-out: Estimated Ki α4β2; for Affinity ratio (α3β4/α4β2): Ki α3β4 divided by Ki α4β2.

A further assay has as its target T4, α3β2 nAChR (Rattus norvegicus, UniProt P04757+P12390).
T4 construct: expressed in transfected cells
The description is as above. Particulars: for potency estimated from few doses: read-out: Estimated Ki α3β2.

Another assay has as its system α6β42. Nature of the assay: Primary screening, single concentration competition binding assay. Conditions: estimated from single concentration (10 μM) competition binding, read-out: Estimated Ki α6β42.
A further assay deals with T5, α3β4 nAChR (Rattus norvegicus, UniProt P04757+P12392).
T5 construct: expressed in transfected cells
Nature of the assay: Competition binding with [3H]epibatidine, membrane homogenates of stably transfected cells. Particulars: for potency estimated from few doses: read-out: Estimated Ki α3β4.

Another assay has as its target T6, α2β2 nAChR (Rattus norvegicus, UniProt P12389+P12390).
T6 construct: expressed in transfected cells
The assay is described as above. Particulars: for potency estimated from few doses: read-out: Estimated Ki α2β2.

The target of assay [1] is nAChRs of rat forebrain tissue (Rattus norvegicus, UniProt P09483+P12390). Format: binding. Particulars: for Ki: mean of three to five independent measurements.
A further assay has as its target T7, α4β2 nAChR's (Homo sapiens, UniProt P17787+P43681).
T7 construct: expressed in transfected cells
Nature of the assay: 86Rb+ efflux assay, agonist activity. The assay is classed as cell-based. Particulars: tested at 0.1, 1, 10 and 100 μM.

The next assay addresses T8, α3β4 nAChR subtype (Rattus norvegicus, UniProt P04757+P12392).
T8 construct: expressed in transfected cells; host or cells: KXα3β4R2 cells (named in the result head)
Nature of the assay: Antagonist activity, block of nicotine stimulated responses. Format: cell-based. Conditions: for Inhibition of the function of the α3β4 nAChR subtype: at 100 μM; for Block of nicotine stimulated responses at α3β4: concentrations up to 10 μM. As to the method:
(§1) Compounds 15 and 17a are antagonists of the α4β2 nAChR subtype. […] Compounds 15 and 17a were tested for their antagonist activities at the α4β2 and α3β4 receptors at concentrations from 0.1 μM to 100 μM. […] This is typical of most classical nicotinic ligands.^34

A further assay deals with T9, α4β2 nAChR subtype (Homo sapiens, UniProt P17787+P43681).
T9 construct: expressed in transfected cells
The description is as above. The assay is classed as cell-based. Particulars: for inhibition at 100 µM: read-out: Inhibition of the function of the α4β2 nAChR subtype; for Block of nicotine stimulated responses at α4β2: concentrations up to 10 μM. As to the method: as §1

The mark [2] stands for this setting: primary screening, estimated from single concentration (10 μM) competition binding.
[3] abbreviates: mean of three to five independent measurements, [3H]epibatidine, read-out: Ki α2β4.
Setting [4] is: mean of three to five independent measurements, [3H]epibatidine, read-out: Ki α4β4.
Where [5] appears, read: mean of three to five independent measurements, [3H]epibatidine, read-out: Ki α4β2.
[6] abbreviates: mean of three to five independent measurements, [3H]epibatidine, read-out: Ki α3β2.
Setting [7] is: mean of three to five independent measurements, [3H]epibatidine, read-out: Ki α2β2.
Setting [8] is: mean of three to five independent measurements, [3H]epibatidine, read-out: Ki α3β4.
Where [9] appears, read: estimated from single run concentration binding assay.

`O=c1ccccn1CC1CCNCC1` [Compound 7a, 1-(Piperidin-4-ylmethyl)pyridin-2(1H)-one]: the potency estimated from few doses on α2β4 nAChR (setting [2]) was 80 µM; on α4β4 nAChR (setting [2]), 5.4 µM; on α4β2 nAChR (setting [2]), 1.6 µM; at α3β2 nAChR (setting [2]), 12 µM; in the assay on α6β42 it was 87 µM; at α3β4 nAChR (setting [2]), 750 µM.
Consider `O=c1ccccn1CC1CCN(Cc2ccccc2)CC1` [Compound 7b, 1-[(1-Benzyl-piperidin-4-yl)methyl]pyridin-2(1H)-one], for which the potency estimated from few doses on α2β4 nAChR (setting [2]) is 440 µM; on α4β4 nAChR (setting [2]), 4.5 µM; at α4β2 nAChR (setting [2]) it was 1.3 µM; at α3β2 nAChR (setting [2]), 7.3 µM; in the assay with α6β42, 470 µM; on α2β2 nAChR (setting [2]), 26 µM. Besides, the potency estimated from few doses on α3β4 nAChR (setting [2]) is 620 µM.
Take `CN1CCCC(Cn2ccccc2=O)C1` (centres unmarked) [Compound 6b, 1-[(1-Methylpiperidin-3-yl)methyl]pyridin-2(1H)-one]: the potency estimated from few doses was 180 µM on α2β4 nAChR (setting [2]); 2.6 µM on α4β4 nAChR (setting [2]); 0.98 µM at α4β2 nAChR (setting [2]); 6 µM on α3β2 nAChR (setting [2]); 76 µM in the assay with α6β42; 19 µM at α2β2 nAChR (setting [2]). For the same compound, the potency estimated from few doses at α3β4 nAChR (setting [2]) was 160 µM.
As a reminder, the Ki is the equilibrium dissociation constant of an inhibitor or competing ligand from its target. For `COC(=O)[C@H]1C2CNCC(C2)c2cccc(=O)n21` (single isomer, unassigned; (-)) [(−)-22, 8-Oxo-1,3,4,5,6,8-hexahydro-2H-1,5-methano-pyrido[1,2-a][1,5]diazocine-6-carboxylic acid methyl ester], the Ki at α2β4 nAChR (setting [3]) came to 75 µM; on α4β4 nAChR (setting [4]), 33 µM; on α4β2 nAChR (setting [5]), 24 µM; at α3β2 nAChR (setting [6]) it was 250 µM; in assay [1], 48 µM; at α2β2 nAChR (setting [7]) it was 17 µM. Besides, at α3β4 nAChR (setting [8]), the Ki was found to be 320 µM. Moreover, the “Affinity ratio (α3β4/α4β2)” value on α4β2 nAChR is recorded as 13.
As for `Cc1ccc(-c2ccc3n(c2=O)CC2CNCC3C2)s1` (single isomer, unassigned; (-)) [(−)-21c, 9-(5-Methyl-2-thienyl)-1,2,3,4,5,6-hexahydro-1,5-methano-pyrido[1,2-a][1,5]diazocin-8-one], the inhibition constant Ki on α2β4 nAChR (setting [3]) was determined as 1.7 µM; at α4β4 nAChR (setting [4]), 0.59 µM; at α4β2 nAChR (setting [5]), 0.39 µM; at α3β2 nAChR (setting [6]), 6 µM; in assay [1], 1.2 µM; on α2β2 nAChR (setting [7]), 0.5 µM. Besides, the inhibition constant Ki on α3β4 nAChR (setting [8]) came out at 23 µM. In addition, the “Affinity ratio (α3β4/α4β2)” value on α4β2 nAChR was 59.
`CCCCc1ccc(-c2ccc3n(c2=O)CC2CNCC3C2)cc1` (single isomer, unassigned; (-)) [(−)-21b, 9-(4-Butylphenyl)-1,2,3,4,5,6-hexahydro-1,5-methano-pyrido[1,2-a][1,5]diazocin-8-one]: the Ki at α2β4 nAChR (setting [3]) is 28 µM; at α4β4 nAChR (setting [4]), 13 µM; on α4β2 nAChR (setting [5]) it was 8.2 µM; on α3β2 nAChR (setting [6]) it was 36 µM; in assay [1] it was 21 µM; at α2β2 nAChR (setting [7]), 8 µM. In addition, the Ki at α3β4 nAChR (setting [8]) amounted to 140 µM. Moreover, the “Affinity ratio (α3β4/α4β2)” value at α4β2 nAChR is listed as 17.
On to `CCC(=O)[C@H]1C2CNCC(C2)c2cccc(=O)n21` (single isomer, unassigned; (-)) [(−)-23, 6-Propionyl-1,2,3,4,5,6-hexahydro-1,5-methano-pyrido[1,2-a][1,5]diazocin-8-one], for which the Ki on α2β4 nAChR (setting [3]) stood at 50 µM; on α4β4 nAChR (setting [4]), 20 µM; on α4β2 nAChR (setting [5]), 16 µM; at α3β2 nAChR (setting [6]) it was 300 µM; in assay [1], 23 µM; on α2β2 nAChR (setting [7]), 14 µM. Further, at α3β4 nAChR (setting [8]), the Ki came to 280 µM. In addition, at α4β2 nAChR, the “Affinity ratio (α3β4/α4β2)” value stood at 18.
“10-Cyclohexyl(methoxymethyl)-1,2,3,4,5,6-hexahydro-1,5-methano-pyrido[1,2-a][1,5]diazocin-8-one [rac-25]”: the potency estimated from few doses was 0.78 µM on α2β4 nAChR (setting [9]); 0.15 µM at α4β4 nAChR (setting [9]); under 0.029 µM on α4β2 nAChR (setting [9]); 0.8 µM at α3β2 nAChR (setting [9]); 0.17 µM in [1] (estimated from single run concentration binding assay, read-out: Estimated Ki Forebrain); under 0.017 µM at α2β2 nAChR (setting [9]). Also, the potency estimated from few doses at α3β4 nAChR (setting [9]) is 25 µM. Also, the “Affinity ratio (α3β4/α4β2)” value at α4β2 nAChR is on record as over 862.
For `O=c1ccccn1CC1CCCN(Cc2ccccc2)C1` (centres unmarked) [Compound 6c, 1-[(1-Benzylpiperidin-3-yl)methyl]pyridin-2(1H)-one], the potency estimated from few doses on α2β4 nAChR (setting [2]) is 91 µM; on α4β4 nAChR (setting [2]) it was 1.4 µM; at α4β2 nAChR (setting [2]), 0.54 µM; on α3β2 nAChR (setting [2]) it was 4.3 µM; with α6β42, 54 µM; on α2β2 nAChR (setting [2]), 100 µM. For the same compound, at α3β4 nAChR (setting [2]), the potency estimated from few doses was 83 µM.
For orientation: inhibition means how much of the control response was suppressed. Take `Cc1cc2n(c(=O)c1)CC1CNCC2C1` (racemic) [rac-15, 10-Methyl-1,2,3,4,5,6-hexahydro-1,5-methano-pyrido[1,2-a][1,5]diazocin-8-one]: the Ki was found to be 0.18 µM on α2β4 nAChR; 0.038 µM on α4β4 nAChR; 0.0019 µM on α4β2 nAChR; 0.54 µM on α3β2 nAChR; 0.0075 µM on α2β2 nAChR; 6.7 µM at α3β4 nAChR. Further, the “Agonist activity at α4β2 (86Rb+ efflux)” value on α4β2 nAChR's was “did not show agonist activity”. Also, the “Affinity ratio (α3β4/α4β2)” value at α4β2 nAChR was 3526; at α4β2 nAChR (listed as 15), over 3000. In addition, the “Inhibition of the function of the α3β4 nAChR subtype” value at α3β4 nAChR subtype was “only slightly inhibited”. In addition, the “Block of nicotine stimulated responses at α3β4” value on α3β4 nAChR subtype is “did not significantly block nicotine stimulated responses”. In addition, on α4β2 nAChR subtype, the inhibition at 100 µM is over 50%. The “Block of nicotine stimulated responses at α4β2” value at α4β2 nAChR subtype was “did not significantly block nicotine stimulated responses”.
Take `O=c1c(-c2ccc(F)cc2)ccc2n1CC1CNCC2C1` (single isomer, unassigned; (-)) [(−)-21a, 9-(4-Fluorophenyl)-1,2,3,4,5,6-hexahydro-1,5-methano-pyrido[1,2-a][1,5]diazocin-8-one]: the inhibition constant (Ki) on α2β4 nAChR (setting [3]) came out at 8.1 µM; at α4β4 nAChR (setting [4]), 3.3 µM; on α4β2 nAChR (setting [5]), 0.42 µM; on α3β2 nAChR (setting [6]), 12 µM; in assay [1], 3.1 µM; on α2β2 nAChR (setting [7]) it was 0.82 µM. The Ki at α3β4 nAChR (setting [8]) is 66 µM. Besides, at α4β2 nAChR, the “Affinity ratio (α3β4/α4β2)” value worked out at 157.
In the case of `O=c1ccccn1CC1CCCNC1` (centres unmarked) [Compound 6a, 1-(Piperidin-3-ylmethyl)pyridin-2(1H)-one], the potency estimated from few doses on α2β4 nAChR (setting [2]) was 159 µM; on α4β4 nAChR (setting [2]) it was 5.55 µM; at α4β2 nAChR (setting [2]), 1.78 µM; on α3β2 nAChR (setting [2]), 18.7 µM; in the assay on α6β42, 253 µM; on α2β2 nAChR (setting [2]) it was 4.63 µM. For the same compound, on α3β4 nAChR (setting [2]), the potency estimated from few doses is 535 µM.
In the case of `O=c1cc(CO)cc2n1CC1CNCC2C1` (racemic) [rac-17a, 10-(Hydroxymethyl)-1,2,3,4,5,6-hexahydro-1,5-methano-pyrido[1,2-a][1,5]diazocin-8-one], the Ki stood at 0.3 µM on α2β4 nAChR; 0.068 µM on α4β4 nAChR; 0.011 µM at α4β2 nAChR; 0.467 µM at α3β2 nAChR; 0.032 µM on α2β2 nAChR; 10 µM at α3β4 nAChR. Moreover, the “Agonist activity at α4β2 (86Rb+ efflux)” value on α4β2 nAChR's is “did not show agonist activity”. The “Affinity ratio (α3β4/α4β2)” value at α4β2 nAChR is 909. Further, the “Inhibition of the function of the α3β4 nAChR subtype” value at α3β4 nAChR subtype was “only slightly inhibited”. In addition, on α3β4 nAChR subtype, the “Block of nicotine stimulated responses at α3β4” value was “did not significantly block nicotine stimulated responses”. For the same compound, at α4β2 nAChR subtype, the inhibition at 100 µM was over 50%. At α4β2 nAChR subtype, the “Block of nicotine stimulated responses at α4β2” value is reported as “did not significantly block nicotine stimulated responses”.
